Experimental findings from PMC3884839, “Pharmacokinetics and pharmacodynamics utilizing unbound target tissue exposure as part of a disposition-based rationale for lead optimization of benzoxaboroles in the treatment of Stage 2 Human African Trypanosomiasis” (Parasitology, 2013) are described below.

What is called IC50 is the concentration at which inhibition is half-maximal. A low value points to greater potency in that assay.

The test system of one series is L929 mammalian cell line. Kind of series: L929 mammalian cell cytotoxicity / selectivity. In kind it is cell-based.
Series [1] in a line: Binding to human plasma protein by rapid equilibrium dialysis. In kind it is in vitro ADME. The settings on record: 1 μg mL^−1. As to the method:
Binding to plasma proteins, brain homogenates or proteins in serum-fortified HMI-9 media was determined by rapid equilibrium dialysis (RED) (Pierce, Rockford, IL) using a 48-well plate-based format according to the manufacturer's instructions. Briefly, test compound was added to fresh plasma (Bioreclamation, Liverpool, NY) at the required concentrations, freshly prepared brain homogenate or media. Duplicate aliquots of each sample were transferred into the sample chambers of the RED devices, and dialysis buffer (BupH PBS) was added to the buffer chambers. The plates were sealed and incubated at 37 °C for 4 h. After dialysis, samples collected from the buffer and tissue chambers were treated with ice-cold methanol (3 volumes for plasma or HMI-9 media, 4 volumes for brain) to precipitate proteins. The treated samples were centrifuged for 10 min at approximately 3000 g at 15 °C. The supernatants were assayed for test compound by LC-MSMS. Calibration standards and quality control samples were prepared in matched matrix and assayed with samples. Values for unbound and bound fractions and mass balance were calculated. Concordance of binding for each batch of plasma was confirmed by assay of warfarin, imipramine and carbamezapine. Acceptance criterion for mass balance was 70–120%.
Background: In equilibrium dialysis only unbound substance equilibrates across the membrane.

Series [2] concerns MDCKII-hMDR1 monolayer (Pgp efflux transporter). The series is described as follows: MDCKII-hMDR1 monolayer permeability and Pgp-mediated efflux. In kind it is in vitro ADME. As to the method:
The propensity of test compounds to cross the BBB was examined using an in vitro MDCKII-hMDR1 monolayer assay (Polli et al. [2001]). In summary, MDCKII-hMDR1 cells (Netherlands Cancer Institute, Amsterdam, the Netherlands) were seeded at a density of 3×10^5 cells per well onto microporous polycarbonate membranes in 12 well Costar Transwell plates (Corning Inc., Lowell, MA). The cells were incubated for 3 days during which time they formed confluent monolayers. Trans-epithelial resistance (TEER) was measured for each insert to ensure the integrity of the monolayer (acceptable TEER >160 Ω cm^2). The permeability and susceptibility for Pgp-mediated efflux was evaluated by adding each compound at a concentration of 3 μM, in the presence or absence of 2 μM GF120918 (a potent Pgp inhibitor), to the apical compartment. Competency of the Pgp efflux transporter was confirmed by assay of propranolol (non-substrate) and amprenavir (substrate). Cell monolayers were incubated in triplicate with shaking (160 rpm) at 37 °C in a 5% CO2-enriched humidified atmosphere for 1 h. Samples were removed from the apical and basolateral compartments after incubation and assayed for test compound concentrations by LC-MSMS. Values for mass balance, PappA−B, PappA−B+GF918, and absorption quotient (AQ) were calculated for each compound (Troutman and Thakker, [2003]; Thiel-Demby et al. [2004]). Acceptance criterion for mass balance was 70–120%.

The test system of a further series is T. b. brucei (TREU 667). The series is described as follows: Murine model of Stage 2 (CNS) HAT. Type of series: in vivo, mouse. How it is done:
The efficacy of benzoxaboroles was evaluated in a murine model of Stage 2 (CNS) HAT (Nare et al. [2010]; Jacobs et al. [2011]). In summary, mice (n = 10 per group) were infected by bolus i.p. injection of 1×10^4 T. b. brucei (TREU 667) parasites. A single bolus i.p. dose (10 mg kg^-1) of berenil (Sigma-Aldrich, St. Louis, MO) was administered on day 4 as a positive treatment control for haemolymphatic-stage infection. Infection of the remaining animals proceeded for 21 days to establish a CNS infection before treatment with either a single dose of berenil (as above) or test compounds by the oral route either once or twice daily over 7 days at the doses indicated below. Animals were checked at least weekly for parasitaemia and were immediately removed from cages and euthanized upon recrudescence. Animals were considered cured if they were […] for at least 180 days after treatment.

[3] abbreviates: 6·25 mg kg^−1 day^−1 oral for 7 days.

Molecules are shown by their SMILES. ≈ marks a conversion by molar mass, not a printed value.

For the compound `CC1(C)OB(O)c2cc(NC(=O)c3ccc(F)cc3C(F)(F)F)ccc21` [SCYX-7158], the IC50 in the series on L929 mammalian cell line (Mus musculus, L929 mammalian cell line, cytotoxicity) was determined as 50 µg/mL (≈ 136 µM). Further, the Selectivity result in the series with L929 mammalian cell line (parasite vs L929) is “⩾138”. The Mass balance in series [1] is 110%. Further, the P-gp classification result in series [2] was “Non-substrate”. Also, the “Mass balance A–B+GF918” value in series [2] (3 μM, with GF918) worked out at 75%. The “Mass balance A–B” value in series [2] (3 μM, without GF918) was 79%. The cure outcome is on record as “No animals were cured” in the series with T. b. brucei (TREU 667) (50 mg kg^−1, single oral dose) and “complete cures” in the series on T. b. brucei (TREU 667) (⩾25 mg kg^−1 day^−1 oral for 7 days). Also, the cure rate with T. b. brucei (TREU 667) (50 mg kg^−1 oral, ⩾3 days of dosing) is reported as 100%; in the series with T. b. brucei (TREU 667) (12·5 mg kg^−1 oral once daily for 7 days) it was 80%. Besides, the “day of recrudescence of parasitaemia after infection” value in the series with T. b. brucei (TREU 667) (setting [3]) was about 35 days. In addition, the treatment outcome in the series on T. b. brucei (TREU 667) (setting [3]) is “cleared of haemolymphatic T. b. brucei but demonstrated recrudescence of parasitaemia”.
